# Assay results from paper PMC9127750, “Structure-based design of CDC42 effector interaction inhibitors for the treatment of cancer” (Cell reports, 2022).
# Where “and” joins values, the source holds several entries; their conditions need not be identical. Identical values can stand only once.
# Test system: WM3248 melanoma cells, 486 antibodies
# Experiment: Reverse phase protein arrays (RPPA);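 on CREB pS133.R.C RPPA level: ratio of treated to vehicle (0 µM) normalized linear protein signal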;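 on Cyclin.B1.R.V RPPA level: ratio of treated to vehicle (0 µM) normalized linear protein signal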;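 on Cyclin.E1.R.V RPPA level: ratio of treated to vehicle (0 µM) normalized linear protein signal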;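 on DDB.1.R.V RPPA level: ratio of treated to vehicle (0 µM) normalized linear protein signal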
# Type: cell-based, Human
# Details: 10 uM
# Description: Pellets were snap frozen in liquid nitrogen and shipped to MD Anderson Cancer Center core RPPA facility for RPPA analysis (Table S5). Three biological replicates for each sample were generated.
# Nomenclatures on the RPPA heatmaps: name_of_antibody.species_of_antibody.status_of_antibody. V - antibody validated; C - validation of antibody in progress; Q - antibody nonspecific; E – under evaluation; antibodies raised in M - mouse, G - goat, R - rabbit, or T - rat.
smiles,measurement,setting,value
"CN(C)c1cccc(Nc2cc(-c3ccccc3)nc(C3CCNCC3)n2)c1 [ARN22089, N1,N1-dimethyl-N3-(6-phenyl-2-(piperidin-4-yl)pyrimidin-4-yl)benzene-1,3-diamine]",CENP.A.R.V RPPA level,replicates,1.151 and 1.005 and 0.894
same,CHD1L.R.V RPPA level,replicates,1.053 and 0.975
same,CIITA.R.C RPPA level,replicates,0.943
same,COG3.R.V RPPA level,replicates,1.004 and 1.123 and 1.059
same,CRABP1.R.C RPPA level,replicates,1.020 and 1.132 and 0.998
same,CRABP2.R.V RPPA level,replicates,1.116 and 1.191 and 0.898
same,CREB_pS133.R.C RPPA level,replicates,1.215 and 1.129 and 1.046
same,CSK.R.C RPPA level,replicates,1.016 and 1.050
same,Calnexin.R.V RPPA level,replicates,1.054 and 1.062 and 1.021
same,Caspase.3.cleaved.R.C RPPA level,replicates,0.914 and 0.955 and 0.964
same,Caspase.7.cleaved..R.C RPPA level,replicates,0.854 and 1.203 and 0.935
same,Caspase.8.M.Q RPPA level,replicates,0.939 and 0.985 and 0.948
same,Caspase.8.cleaved.R.C RPPA level,replicates,1.012 and 1.005
same,Caveolin.1.R.V RPPA level,replicates,0.511 and 0.968 and 1.344
same,Cdc6.R.V RPPA level,replicates,1.149 and 0.959 and 0.806
same,Cdc42.R.C RPPA level,replicates,0.879 and 1.031 and 1.047
same,Chk1.M.C RPPA level,replicates,0.982
same,Chk1_pS296.R.V RPPA level,replicates,1.083 and 1.109 and 1.035
same,Chk1_pS345.R.C RPPA level,replicates,1.079 and 0.892
same,Chk2.M.V RPPA level,replicates,1.081 and 1.018 and 0.980
same,Chk2_pT68.R.C RPPA level,replicates,1.106 and 0.986
same,Claudin.7.R.V RPPA level,replicates,1.024 and 1.518
same,Collagen.VI.R.V RPPA level,replicates,1.360 and 0.732 and 0.984
same,Complex.II.Subunit.M.V RPPA level,replicates,0.942 and 1.064
same,Connexin.43.R.C RPPA level,replicates,1.028 and 1.053 and 1.013
same,Coup.TFII.R.C RPPA level,replicates,0.805 and 0.957 and 0.905
same,Cox2.R.C RPPA level,replicates,0.926
same,Cox.IV.R.V RPPA level,replicates,0.954 and 1.028 and 0.879
same,Creb.R.C RPPA level,replicates,0.985 and 0.987 and 0.986
same,CtIP.R.V RPPA level,replicates,0.811 and 0.959 and 1.049
same,Cyclin.B1.R.V RPPA level,replicates,1.215 and 0.558 and 1.046
same,Cyclin.D1.R.C RPPA level,replicates,1.058 and 1.030
same,Cyclin.D3.M.V RPPA level,replicates,1.147 and 1.027 and 0.999
same,Cyclin.E1.R.V RPPA level,replicates,1.052 and 1.061 and 0.904
same,D.a.Tubulin.R.V RPPA level,replicates,0.843 and 1.062 and 1.022
same,DAPK1_pS308.M.C RPPA level,replicates,1.219 and 0.875
same,DAPK2.R.C RPPA level,replicates,0.896 and 0.971
same,DDB.1.R.V RPPA level,replicates,0.816 and 0.798 and 0.956
same,DDR1.R.V RPPA level,replicates,1.205 and 0.959 and 0.921
same,DDR1_pY513.R.C RPPA level,replicates,1.134 and 1.079 and 0.941
same,DJ1.R.V RPPA level,replicates,0.977 and 1.030
same,DM.Histone.H3.R.V RPPA level,replicates,0.923 and 0.956 and 0.905
same,DM.K9.Histone.H3.M.V RPPA level,replicates,1.060 and 1.027
same,DNA.Ligase.IV.R.C RPPA level,replicates,0.876 and 1.063
same,DNA_POLG.R.V RPPA level,replicates,1.161 and 1.030 and 0.850
same,c.Jun_pS73.R.V RPPA level,replicates,0.892 and 1.231 and 0.915
same,c.Kit.R.V RPPA level,replicates,1.223 and 0.923 and 0.946
same,c.Met_pY1234_Y1235.R.V RPPA level,replicates,0.927 and 0.979
same,c.Myc.R.C RPPA level,replicates,0.990 and 1.949 and 1.062
same,cGAS.R.V RPPA level,replicates,1.123 and 1.204 and 1.015
same,cdc2_pY15.R.C RPPA level,replicates,1.056 and 0.933
same,cdc25C.R.V RPPA level,replicates,0.773 and 0.805 and 1.120
same,RPPA MYH11.R.C,single replicates,1.100 and 1.584
same,RPPA Myosin.IIa.R.C,single replicates,0.877 and 0.781 and 1.164
same,RPPA Myosin.IIa_pS1943.R.V,single replicates,0.954 and 0.844 and 1.268
same,RPPA Myt1.R.C,single replicates,0.886 and 0.984 and 1.096
same,RPPA N.Cadherin.R.V,single replicates,1.097 and 1.063 and 1.030
same,RPPA N.Ras.M.V,single replicates,0.953 and 0.958 and 1.062
same,RPPA NAPSIN.A.R.C,single replicates,0.999 and 1.048
same,RPPA NDRG1_pT346.R.V,single replicates,0.798 and 1.051 and 1.195
same,RPPA NDUFB4.R.V,single replicates,1.112 and 1.008 and 0.987
same,RPPA NRF2.R.C,single replicates,1.131 and 0.925 and 0.932
same,RPPA Notch1.R.V,single replicates,1.065 and 1.124 and 1.005
same,RPPA Notch1.cleaved.R.V,single replicates,0.792 and 0.886 and 1.098
same,RPPA Notch3.R.C,single replicates,1.065 and 1.230 and 1.000
same,RPPA Oct.4.R.C,single replicates,0.909
same,RPPA P.Cadherin.R.C,single replicates,1.001 and 0.968
same,RPPA PAI.1.M.V,single replicates,0.919 and 0.946
same,RPPA PAICS.R.C,single replicates,0.926 and 0.836 and 0.997
same,RPPA PAK1.R.V,single replicates,0.749 and 1.057 and 1.078
same,RPPA PAK4.R.V,single replicates,1.101 and 1.108 and 0.979
same,RPPA PAK_pS474_S602_S560.R.V,single replicates,1.125 and 1.130 and 1.000
same,RPPA PAK_pT423_T402.R.C,single replicates,1.141 and 0.908
same,RPPA PAR.R.C,single replicates,0.306 and 0.831 and 0.304
same,RPPA PARG.R.C,single replicates,0.976 and 1.013 and 0.921
same,RPPA PARP.R.V,single replicates,1.079 and 0.890 and 1.083
same,RPPA PAX6.R.V,single replicates,0.992 and 1.020 and 0.997
same,RPPA PAX8.R.C,single replicates,1.133 and 1.022 and 0.978
same,RPPA PCNA.M.C,single replicates,0.928 and 1.013 and 1.020
same,RPPA PD.1.R.V,single replicates,1.076 and 1.064 and 1.035
same,RPPA PD.L1.R.C,single replicates,0.845 and 1.047
same,RPPA PDH.M.V,single replicates,1.032 and 1.047 and 1.014
